Measured values as given in patent US20070166781A1, “Method for assessing the virulence of pathogens and uses thereof” (priority 2002, published 2007).
In brackets after ≈: the same amount, converted by molar mass. Read-outs that look alike come from different tables or passages of the source.

Columns and labels:
Format in all cases: cell-based
[1] = system: P. aeruginosa PAO-BI (nfxC); experiment: MIC in Mueller-Hinton broth by the microdilution method; conditions: Pseudomonas aeruginosa
Method: (§1) Bacteria were grown overnight at 37° C. on Luria-Bertani (LB) agar. Single colonies were inoculated into 5 ml PB (2% (wt/vol) peptone, 0.3% (wt/vol) MgCl2.6H2O, 1% (wt/vol) K2SO4) (Essar et al., 1990, J. Bacteriol., 172(2), 884-900) in a 50 ml flask and grown at 37° C. for 8 hr prior to use. […] Under these conditions, similar OD600s were obtained for each strain and the induction of quorum sensing was maximal. Minimal Inhibitory Concentrations (MICs) were determined in Mueller-Hinton broth by the microdilution method (Thornsberry et al., 1983 NCCLS, 3, 48-56).

P. aeruginosa PAO1 [2] = experiment: as above; conditions: Pseudomonas aeruginosa; strain PAO1
Method: as §1

P. aeruginosa PDO100 = experiment: as above; conditions: Pseudomonas aeruginosa
Method: as §1

[3] = system: P. aeruginosa PT149 (nfxC); experiment: as above; conditions: Pseudomonas aeruginosa
Method: as §1

[4] = system: P. aeruginosa PT625 (nalB); experiment: as above; conditions: Pseudomonas aeruginosa
Method: as §1

[5] = system: P. aeruginosa PT648 (nfxB); experiment: as above; conditions: Pseudomonas aeruginosa
Method: as §1

P. aeruginosa PAO1 [6] = experiment: Growth of D. discoideum DH1-10 on a lawn of P. aeruginosa PAO1 grown with azithromycin; conditions: lawn of PAO1, 2 μg/ml azithromycin
Method: Quantitative measurements of D. discoideum growth on a lawn of pure P. aeruginosa were obtained by first plating 200 μl of P. aeruginosa culture on SM-agar. Droplets of 5 μl containing serial dilutions of D. discoideum cells (50.000 cells, 10.000 cells, 2.000, etc.) were then spotted on the bacterial lawn. The plates were incubated for 5 days at 25° C. and the highest dilution at which D. discoideum growth was visible was recorded.
However, in these experiments, Dictyostelium was grown in, the presence of both Klebsiella and Pseudomonas bacteria. […] To obtain more quantitative results, higher numbers of Dictyostelium cells were used to determine how many amoebae would be necessary to create a plaque in a lawn of P. aeruginosa. […] Consequently growth of Dictyostelium on the lasR mutant was scored as 1. On a lawn of the rhlR mutant PT462, amoebal growth could be observed in the first five dilutions of Dictyostelium (FIG. 2C; scored 5). […]
A lawn of P. aeruginosa PAO1 is grown in the presence of 2 μg/ml of azithromycin overnight. The bacterial lawn is then seeded with different dilutions of D. discoideum DH1-10 three days latter and the appearance of D. discoideum DH1-10 colonies is monitored. Growth of colonies of D. discoideum DH1-10 are recorded and scored between 1 and 2 (same scale as FIG. 2) as compared to a score of 0 in the absence of antibiotic.

[7] = strain PAO-BI (nfxC), read-out: MIC
[8] = strain PT149 (nfxC), read-out: MIC
[9] = strain PT648 (nfxB), read-out: MIC

SMILES	MIC [1, 7] [µg/mL]	MIC (P. aeruginosa PAO1 [2]) [µg/mL]	MIC (P. aeruginosa PDO100; strain PDO100, read-out: MIC) [µg/mL]	MIC [3, 8] [µg/mL]	MIC [4] [µg/mL]	MIC [5, 9] [µg/mL]	MIC [1] [µg/mL]	MIC (P. aeruginosa PDO100; PDO100) [µg/mL]	MIC [3] [µg/mL]	MIC [5] [µg/mL]	Growth of colonies of D. discoideum DH1-10 in the presence versus absence of azithromycin (P. aeruginosa PAO1 [6])
C[C@H]1[C@H](NC(=O)/C(=N\OC(C)(C)C(=O)O)c2csc(N)n2)C(=O)N1S(=O)(=O)O [Aztreonam]	2 (≈ 4.59 µM)	4 (≈ 9.19 µM)	2 (≈ 4.59 µM)	1 (≈ 2.3 µM)	16 (≈ 36.7 µM)	2 (≈ 4.59 µM)	–	–	–	–	–
O=C(N[C@H](CO)[C@H](O)c1ccc([N+](=O)[O-])cc1)C(Cl)Cl [Chloramphenicol]	–	32 (≈ 99 µM)	–	–	64 (≈ 198 µM)	–	1060 (≈ 3290 µM)	32 (≈ 99 µM)	1060 (≈ 3290 µM)	64 (≈ 198 µM)	–
CO/N=C(\C(=O)N[C@@H]1C(=O)N2C(C(=O)[O-])=C(C[n+]3cccc4c3CCC4)CS[C@H]12)c1csc(N)n1 [Cefpirome]	0.5 (≈ 0.972 µM)	2 (≈ 3.89 µM)	2 (≈ 3.89 µM)	0.5 (≈ 0.972 µM)	4 (≈ 7.77 µM)	8 (≈ 15.5 µM)	–	–	–	–	–
CC[C@H]1OC(=O)[C@H](C)[C@@H](O[C@H]2C[C@@](C)(OC)[C@@H](O)[C@H](C)O2)[C@H](C)[C@@H](O[C@@H]2O[C@H](C)C[C@H](N(C)C)[C@H]2O)[C@](C)(O)C[C@@H](C)CN(C)[C@H](C)[C@@H](O)[C@]1(C)O [azithromycin, Azithromycin]	–	–	–	–	–	–	–	–	–	–	significantly greater
C[C@@H](O)[C@H]1C(=O)N2C(C(=O)O)=C(SCCN=CN)C[C@H]12 [Imipenem]	4 (≈ 13.4 µM)	1 (≈ 3.34 µM)	1 (≈ 3.34 µM)	4 (≈ 13.4 µM)	1 (≈ 3.34 µM)	1 (≈ 3.34 µM)	–	–	–	–	–
O=C(O)c1cn(C2CC2)c2cc(N3CCNCC3)c(F)cc2c1=O [Ciprofloxacin]	1 (≈ 3.02 µM)	0.125 (≈ 0.377 µM)	0.125 (≈ 0.377 µM)	1 (≈ 3.02 µM)	0.5 (≈ 1.51 µM)	1 (≈ 3.02 µM)	–	–	–	–	–
